Where “and” joins values, the source holds several entries; their conditions need not be identical. Identical values can stand only once.
Key:
[1] = Baking test 3, standard yeast dough, release of geraniol by GC-MS; format: physicochemical
Experimental: (§1) As samples dough blanks of 10 g flour each were used. A negative control (flour, salt, sugar, fat, yeast, L-ascorbic acid and water), three samples (additionally geranyl glucoside) and a recovery (addition of geraniol to the bread before freezing according to a postulated conversion of glucoside of 6% in order to determine losses during the analytical procedure) were used. Several process steps were carried out according to standardized specifications, separate for each of the five blanks.
For a blank/blind test (i) 9.98 g well-mixed flour were weighed into a glass vessel. 0.2 g NaCl and 0.1 g sucrose and 0.1 g palm fat were added and the mixture was put in the kneader. An addition of 0.7 g (cooled) baking yeast directly to the kneader followed. The mixture was at first kneaded in a dry state for 1 min and kneaded for 8 min after pipetting 6.0 ml dist. H2O and 0.3 ml ascorbic acid solution.
All further steps including the work-up and sample taking ware carried out according to the sample with flour dough (1). In the samples (2a-c) 10 μl GG-solution were pipetted directly after the addition of water and ascorbic acid solution to the kneader. The preparation of the recovery (3) was carried out analogous to the blind sample. After cooling for one hour 170 μl geraniol solution were injected herein into the breadcrumb directly before freezing with liquid nitrogen.

[2] = Baking test 2, simple yeast dough, release of geraniol by GC-MS; format: physicochemical
Experimental: as §1, with “yeast” for “fat, yeast, L-ascorbic acid”
For a blank/blind test (i) 9.98 g well-mixed flour were weighed into a glass vessel. 0.2 g NaCl and 0.1 g sucrose were added and the mixture was put in the kneader. An addition of 0.7 g (cooled) baking yeast directly to the kneader followed. The mixture was at first kneaded in a dry state for 1 min and kneaded for 8 min after pipetting 6.3 ml dist. H2O. All further steps including the work-up and sample taking ware carried out according to the sample with flour dough (1). In the samples (2a-c) 10 μl GG-solution were pipetted directly after the addition of water to the kneader. The preparation of the recovery (3) was carried out analogous to the blind sample. After cooling for one hour 170 μl geraniol solution were injected herein into the breadcrumb directly before freezing with liquid nitrogen.

[3] = Baking test 1, flour dough, release of geraniol by GC-MS; format: physicochemical; conditions: for conversion of GG to geraniol, mean value: triplicate, from 3.2 μmol GG in 17 g bread
From the text: Dough blanks of 10 g flour each were used as base. A negative control (flour, salt and water), three samples (added geranyl glucoside), a recovery (addition of geraniol to the bread prior to freezing according to a postulated conversion of glucoside of about 6% in order to determine the losses during the analytical process) and a control for geraniol in the glucoside solution (addition of an aliquot amount of glucoside only after the baking process to determine the content of geraniol). Several process steps are carried out according to standardized instructions, for each of the six blanks separately.
For a blank/blind test (1) 9.98 g well-mixed flour were weighed into a glass vessel and 0.2 g NaCl were added. The mixture was at first mixed in a dry state for 1 min in a farinograph (=kneader) and kneaded for 8 min after pipetting 6.4 ml dist. water. The dough was taken out quickly and weighed for a first time (E1). A first fermenting period of […] at 31° C. took place in a water vapor saturated proofing cabinet. After taking the dough out of the cabinet a second weighing (E2) took place as well as the homogenization. The ball-shaped blank was put into a round molder (“Rundwirker”) and turned for 10 turns with a superimposed pestle. It was drawn through a pasta/noodle roller, folded two times without inclusion of air and again turned in the round molder for 20 turns. Finally a forming by hand was performed. After the homogenization a second fermentation period of 35 min follows.
For samples (2a-c) additionally 10 μl of a geranyl glucoside (GG) solution (c=98 mg/ml) were quickly pipetted after the addition of water into the kneader.
Baking took place on a tray in the oven for 10 min at 230° C. Before and after putting the samples vapor was put into the closed oven, respectively (spraying and evaporating of 25 ml dist. H2O).
The baked bread was left standing for 60 min at room temperature and subsequently frozen in liquid nitrogen. Storage of the breads took place at −18° C. until the conditioning/preparation. […]

[4] = Baking tests, dough of three kinds of bread with 100 ppm geranyl glucoside (summary); format: physicochemical
Experimental: The proof-of-principle was now shown successfully for the example bread. Dough from three different kinds of bread was treated with the aroma precursor geranyl glucoside. […] This conversion is ascribed to the biggest extent to pyrolytic processes (about 5%) during the ten-minute baking process at 230° C. and partly on the enzyme-catalyzed hydrolytic processes (about […]) during the preparation of yeast-ß-glucosidase.

[5] = test system: FaGTs1-13; assay: In vitro glycosyltransferase assay with 14C UDP-glucose, substrates of FaGTs1-13; format: biochemical, Fragaria x ananassa; conditions: FaGTs1-13, FIG. 11B, 1 h at 30° C.
From the text: In the search for efficient biocatalysts which can be particularly used for the production of aroma glycosides the UGT gene family of plant species Vitis vinifera (grape vine) and Fragaria x ananassa (strawberry) was examined. For this at first the gene sequences were searched that are strongly expressed in the fruits of the plant species. These were subsequently isolated, expressed in the host organism Escherichia coli, and the enzymatic activity toward different potential substrates was determined. At least three of the coding nucleic acid sequences (FaGTs1-5, FaGTs1-13 and VvdGT13, see appended sequences) catalyze the formation of aroma glycosides very efficiently.
In FIG. 11 the determination of the enzyme activity of FaGTs1-5 and FaGTs1-13 is shown.
The reaction was started by adding UDP-glucose and stopped after incubation with 1 ml n-butanol. After vortexing for at least 15 s the reaction mixture was centrifuged 2 min at 12 000×g for separation of the phases, and 800 μl of the upper organic phase containing the product were now transferred to 2 ml scintillation cocktail (Ultima-Flo AF, PerkinElmer).

**Q.** With `CC(C)=CCC/C(C)=C/CO[C@@H]1O[C@H](CO)[C@@H](O)[C@H](O)[C@H]1O` [geranyl glucoside] as the molecule, how does the “content of geraniol in the bread” value [1] read?
**A.** The value was 1.67 mg/kg.

**Q.** And the “conversion of GG to geraniol, mean value” ([1]; triplicate, from 3.2 μmol GG in 17 g bread)?
**A.** Its value is 5.7%.

**Q.** What about the “content of geraniol in the bread” value [2] of the same molecule?
**A.** Its value is 1.77 mg/kg.

**Q.** What about the “conversion of GG to geraniol, mean value” ([2]; samples 2a and 2c only, from 3.2 μmol GG in 17 g bread) of the same molecule?
**A.** Its value is 6.1%.

**Q.** What about the “content of geraniol in the baked bread” value [3] of the same molecule?
**A.** The value was 1.40 mg/kg.

**Q.** And the “conversion of GG to geraniol, mean value” [3]?
**A.** The value was 4.8%.

**Q.** And the “conversion of GG to geraniol, mean value” ([3]; listed as GG)?
**A.** Its value is 4.8% and 4.9%.

**Q.** And the “content of geraniol in bread” value ([4]; 100 ppm added, conversion of 6%)?
**A.** The value was 1.7 mg/kg.

**Q.** What about the “conversion of glucoside to geraniol” value ([4]; addition of 100 ppm geranyl glucoside, ten-minute baking at 230° C.) of the same molecule?
**A.** The value was “about 6%”.

**Q.** What about the “conversion ascribed to pyrolytic processes” value ([4]; ten-minute baking process at 230° C.) of the same molecule?
**A.** Its value is “about 5%”.

**Q.** With `CCC1OC(C)=C(O)C1=O` (centres unmarked) [homofuraneol] as the molecule, how does the “conversion relative to furaneol” value [5] read?
**A.** The value was 3 times.
